Test results taken from ChEMBL document CHEMBL1201862, “PubChem BioAssay data set” (2004).
Active and inactive are the calls of the source.

Assays:
[1] = biological target: Glucose-6-phosphate 1-dehydrogenase (Homo sapiens, UniProt P11413); assay: human G6PD enzyme inhibitors, dose response, selectivity assay for P. falciparum G6PD inhibitor project, biochemical, fluorescence (AID 504792); assay type: functional
[2] = biological target: T1, Polyadenylate-binding protein 1 (Homo sapiens, UniProt P11940); assay: PABP1 MLLE–PAM2 interaction inhibitors, dose response, miRNA deadenylation inhibitor project, biochemical, fluorescence polarization, Cy5-PAM2 peptide, secondary (AID 602260); assay type: functional; conditions: read-out: IC50_Mean
T1 sequence (P11940 whole entry): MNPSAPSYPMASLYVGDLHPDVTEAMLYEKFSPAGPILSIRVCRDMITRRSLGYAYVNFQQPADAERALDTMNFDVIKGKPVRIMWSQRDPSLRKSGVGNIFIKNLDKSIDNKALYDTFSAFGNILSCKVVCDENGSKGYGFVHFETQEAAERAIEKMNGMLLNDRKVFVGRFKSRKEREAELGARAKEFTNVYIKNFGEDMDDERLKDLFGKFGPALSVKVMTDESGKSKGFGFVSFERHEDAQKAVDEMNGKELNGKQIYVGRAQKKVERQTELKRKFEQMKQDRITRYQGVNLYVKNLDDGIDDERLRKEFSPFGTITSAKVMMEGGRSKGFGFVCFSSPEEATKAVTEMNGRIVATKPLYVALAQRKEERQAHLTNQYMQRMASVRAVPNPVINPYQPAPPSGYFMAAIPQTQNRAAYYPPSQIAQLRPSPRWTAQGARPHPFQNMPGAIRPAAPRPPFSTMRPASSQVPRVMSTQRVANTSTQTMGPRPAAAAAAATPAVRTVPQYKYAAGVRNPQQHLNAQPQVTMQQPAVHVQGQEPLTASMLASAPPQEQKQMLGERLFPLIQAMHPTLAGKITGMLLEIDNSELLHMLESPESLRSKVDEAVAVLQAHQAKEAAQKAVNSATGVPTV

[3] = biological target: T1, Polyadenylate-binding protein 1; assay: PABP1 MLLE–PAM2 binding inhibitor potency, dose response, biochemical, fluorescence polarization, FITC-PAM2 peptide (AID 602259); assay type: functional; conditions: read-out: IC50_Mean
[4] = biological target: T2, Calpain-2 catalytic subunit (Sus scrofa, UniProt P43367); assay: pig calpain II inhibitor potency, dose response, biochemical, fluorogenic peptide substrate (AID 1420); assay type: functional
T2 sequence (P43367 whole entry): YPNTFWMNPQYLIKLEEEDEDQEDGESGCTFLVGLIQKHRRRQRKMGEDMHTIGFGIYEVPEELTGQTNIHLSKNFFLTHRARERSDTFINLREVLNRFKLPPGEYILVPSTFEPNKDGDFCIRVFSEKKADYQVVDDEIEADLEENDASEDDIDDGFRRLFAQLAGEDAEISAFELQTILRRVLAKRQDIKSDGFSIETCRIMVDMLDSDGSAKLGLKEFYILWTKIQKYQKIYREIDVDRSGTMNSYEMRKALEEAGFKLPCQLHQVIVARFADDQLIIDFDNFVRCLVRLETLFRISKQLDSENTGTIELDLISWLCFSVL

[5] = biological target: FAD-linked sulfhydryl oxidase ALR (Homo sapiens, UniProt P55789); assay: inhibitors of human ALR sulfhydryl oxidase, dose response, biochemical, H2O2 detection, luminescence, cherry-pick (AID 493248)
Sequence of FAD-linked sulfhydryl oxidase ALR (P55789 whole entry): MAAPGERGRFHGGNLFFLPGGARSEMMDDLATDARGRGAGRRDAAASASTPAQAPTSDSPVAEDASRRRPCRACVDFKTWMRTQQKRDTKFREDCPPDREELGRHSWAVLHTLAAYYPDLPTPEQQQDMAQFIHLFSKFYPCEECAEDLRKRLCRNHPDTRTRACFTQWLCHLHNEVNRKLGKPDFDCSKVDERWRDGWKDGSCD

BJ [6] = assay: cytotoxicity toward BJ-TERT fibroblasts, dose response, cell-based, RAS-independent, luminescence (AID 1933); assay type: functional; conditions: Homo sapiens
[7] = cytotoxicity toward DRD oncogenic fibroblasts, dose response, cell-based, non-viral oncogenic, luminescence (AID 1934); assay type: functional; conditions: Homo sapiens
BJ [8] = assay: cells; assay type: functional, cell-based; conditions: Homo sapiens
BJ [9] = assay: cytotoxicity toward BJ-TERT-LT-ST fibroblasts, dose response, cell-based, RAS-independent, luminescence (AID 1935); assay type: functional; conditions: Homo sapiens;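 further: BJ fibroblasts immortalized with TERT plus LT and ST oncogenes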
[10] = THP-1 cell cytotoxicity, dose response, cytotoxicity control for non-replicating M. tuberculosis project (AID 489025); assay type: functional
[11] = biological target: T3, Heat shock factor protein 1 (Mus musculus, UniProt P38532); assay: HSF1 potentiators in luciferase reporter cells, confirmation, cell-based, NIH3T3, luminescence, dose retest (AID 435004); assay type: functional;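 further: stress induced by proteasome inhibitor MG132 added 30 min after compound; luciferase reporter driven by HSF1 response element in NIH3T3 cells; actives raise luminescence as potentiators of the MG132 stress response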
T3 sequence (P38532 whole entry): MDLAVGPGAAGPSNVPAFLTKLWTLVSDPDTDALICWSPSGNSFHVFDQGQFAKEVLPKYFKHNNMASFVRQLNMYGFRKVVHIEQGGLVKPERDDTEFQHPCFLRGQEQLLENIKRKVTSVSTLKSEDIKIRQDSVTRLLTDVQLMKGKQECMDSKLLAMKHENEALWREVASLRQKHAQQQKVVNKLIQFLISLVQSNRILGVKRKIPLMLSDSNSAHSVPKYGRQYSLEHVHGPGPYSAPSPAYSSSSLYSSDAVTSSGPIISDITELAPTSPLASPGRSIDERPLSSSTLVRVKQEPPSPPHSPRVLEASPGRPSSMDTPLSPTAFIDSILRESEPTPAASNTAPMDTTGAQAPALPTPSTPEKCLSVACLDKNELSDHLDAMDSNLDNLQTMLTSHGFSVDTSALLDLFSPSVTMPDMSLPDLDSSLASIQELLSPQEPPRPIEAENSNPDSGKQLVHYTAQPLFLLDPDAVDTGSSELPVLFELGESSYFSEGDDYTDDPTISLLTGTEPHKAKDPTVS

[12] = inhibitors of intracellular T. cruzi replication, confirmation, NIH3T3 host cells, beta-gal luminescence (AID 2044); assay type: functional, cell-based;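 further: intracellular parasites grown in NIH/3T3 mouse fibroblasts as host cells; luminescent beta-galactosidase reporter signal from transgenic T. cruzi replicating inside host cells; inhibitors lower the luminescence signal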
[13] = cytotoxicity toward NIH3T3 fibroblasts, dose response, counter-screen, cell-based, ATP luminescence, mouse fibroblasts (AID 2010); assay type: functional;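 further: cells exposed to compound for about 90 hours before reading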
[14] = biological target: T4, Microphthalmia-associated transcription factor (Homo sapiens, UniProt O75030); assay: TRPM1 promoter luciferase signal decrease, dose response, MITF inhibitor project, cell-based, SK-MEL-5, cherry-picked, set 3 (AID 493073); assay type: functional
T4 sequence (O75030 whole entry): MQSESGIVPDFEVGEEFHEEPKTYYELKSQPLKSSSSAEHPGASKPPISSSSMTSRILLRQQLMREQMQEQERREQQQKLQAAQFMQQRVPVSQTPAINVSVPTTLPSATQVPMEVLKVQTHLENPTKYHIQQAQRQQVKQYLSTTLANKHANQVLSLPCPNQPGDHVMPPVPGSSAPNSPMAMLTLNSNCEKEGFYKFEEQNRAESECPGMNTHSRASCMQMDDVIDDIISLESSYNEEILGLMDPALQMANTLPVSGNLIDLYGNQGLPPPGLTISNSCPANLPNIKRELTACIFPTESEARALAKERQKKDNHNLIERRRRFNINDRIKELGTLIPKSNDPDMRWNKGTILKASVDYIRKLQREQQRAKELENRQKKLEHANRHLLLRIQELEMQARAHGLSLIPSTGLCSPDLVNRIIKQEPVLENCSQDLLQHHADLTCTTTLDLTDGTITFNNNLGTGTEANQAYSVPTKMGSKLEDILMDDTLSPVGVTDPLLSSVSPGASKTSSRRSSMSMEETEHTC

Genome polyprotein = Genome polyprotein (dengue virus type 2, UniProt P29990); assay: Dengue-2 NS5 methyltransferase inhibitors, primary screen, biochemical, confirmation dose response (AID 588689); assay type: functional
Sequence of Genome polyprotein (P29990 2492-3391 limits assumed): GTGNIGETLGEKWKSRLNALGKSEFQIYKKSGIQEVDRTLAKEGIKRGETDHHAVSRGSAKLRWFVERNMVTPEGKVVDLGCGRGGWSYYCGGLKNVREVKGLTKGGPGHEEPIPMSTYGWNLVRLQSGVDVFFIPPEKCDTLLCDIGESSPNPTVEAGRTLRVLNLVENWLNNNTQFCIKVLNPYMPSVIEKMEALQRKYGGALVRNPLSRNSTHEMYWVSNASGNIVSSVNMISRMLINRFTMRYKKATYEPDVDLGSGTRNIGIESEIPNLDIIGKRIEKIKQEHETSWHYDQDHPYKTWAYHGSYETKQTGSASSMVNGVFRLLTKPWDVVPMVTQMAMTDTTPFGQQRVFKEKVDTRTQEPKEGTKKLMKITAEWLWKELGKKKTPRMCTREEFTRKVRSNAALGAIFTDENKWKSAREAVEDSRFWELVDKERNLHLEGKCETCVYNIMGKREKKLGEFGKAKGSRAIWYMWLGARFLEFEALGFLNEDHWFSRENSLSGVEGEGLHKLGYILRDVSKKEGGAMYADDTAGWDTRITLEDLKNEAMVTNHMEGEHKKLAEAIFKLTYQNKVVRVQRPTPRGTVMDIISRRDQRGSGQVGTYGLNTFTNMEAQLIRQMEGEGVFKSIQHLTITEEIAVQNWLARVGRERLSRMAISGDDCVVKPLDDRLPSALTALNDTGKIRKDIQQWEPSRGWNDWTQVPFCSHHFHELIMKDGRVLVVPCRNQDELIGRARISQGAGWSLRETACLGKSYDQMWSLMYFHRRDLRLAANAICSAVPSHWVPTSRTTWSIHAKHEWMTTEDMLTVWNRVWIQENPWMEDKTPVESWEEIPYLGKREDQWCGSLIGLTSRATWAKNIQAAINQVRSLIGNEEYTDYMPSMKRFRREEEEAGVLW

Fatty acid synthase [15] = biological target: T5, Fatty acid synthase (Homo sapiens, UniProt P49327); assay: FAS thioesterase domain inhibitors, dose response, biochemical, kinetic fluorescence intensity (AID 624326); assay type: functional;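 further: rate of fluorescence rise from hydrolysis of a fluorogenic O-methyl fluorescein ester substrate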
T5 sequence (P49327 whole entry, the tested form may be a part): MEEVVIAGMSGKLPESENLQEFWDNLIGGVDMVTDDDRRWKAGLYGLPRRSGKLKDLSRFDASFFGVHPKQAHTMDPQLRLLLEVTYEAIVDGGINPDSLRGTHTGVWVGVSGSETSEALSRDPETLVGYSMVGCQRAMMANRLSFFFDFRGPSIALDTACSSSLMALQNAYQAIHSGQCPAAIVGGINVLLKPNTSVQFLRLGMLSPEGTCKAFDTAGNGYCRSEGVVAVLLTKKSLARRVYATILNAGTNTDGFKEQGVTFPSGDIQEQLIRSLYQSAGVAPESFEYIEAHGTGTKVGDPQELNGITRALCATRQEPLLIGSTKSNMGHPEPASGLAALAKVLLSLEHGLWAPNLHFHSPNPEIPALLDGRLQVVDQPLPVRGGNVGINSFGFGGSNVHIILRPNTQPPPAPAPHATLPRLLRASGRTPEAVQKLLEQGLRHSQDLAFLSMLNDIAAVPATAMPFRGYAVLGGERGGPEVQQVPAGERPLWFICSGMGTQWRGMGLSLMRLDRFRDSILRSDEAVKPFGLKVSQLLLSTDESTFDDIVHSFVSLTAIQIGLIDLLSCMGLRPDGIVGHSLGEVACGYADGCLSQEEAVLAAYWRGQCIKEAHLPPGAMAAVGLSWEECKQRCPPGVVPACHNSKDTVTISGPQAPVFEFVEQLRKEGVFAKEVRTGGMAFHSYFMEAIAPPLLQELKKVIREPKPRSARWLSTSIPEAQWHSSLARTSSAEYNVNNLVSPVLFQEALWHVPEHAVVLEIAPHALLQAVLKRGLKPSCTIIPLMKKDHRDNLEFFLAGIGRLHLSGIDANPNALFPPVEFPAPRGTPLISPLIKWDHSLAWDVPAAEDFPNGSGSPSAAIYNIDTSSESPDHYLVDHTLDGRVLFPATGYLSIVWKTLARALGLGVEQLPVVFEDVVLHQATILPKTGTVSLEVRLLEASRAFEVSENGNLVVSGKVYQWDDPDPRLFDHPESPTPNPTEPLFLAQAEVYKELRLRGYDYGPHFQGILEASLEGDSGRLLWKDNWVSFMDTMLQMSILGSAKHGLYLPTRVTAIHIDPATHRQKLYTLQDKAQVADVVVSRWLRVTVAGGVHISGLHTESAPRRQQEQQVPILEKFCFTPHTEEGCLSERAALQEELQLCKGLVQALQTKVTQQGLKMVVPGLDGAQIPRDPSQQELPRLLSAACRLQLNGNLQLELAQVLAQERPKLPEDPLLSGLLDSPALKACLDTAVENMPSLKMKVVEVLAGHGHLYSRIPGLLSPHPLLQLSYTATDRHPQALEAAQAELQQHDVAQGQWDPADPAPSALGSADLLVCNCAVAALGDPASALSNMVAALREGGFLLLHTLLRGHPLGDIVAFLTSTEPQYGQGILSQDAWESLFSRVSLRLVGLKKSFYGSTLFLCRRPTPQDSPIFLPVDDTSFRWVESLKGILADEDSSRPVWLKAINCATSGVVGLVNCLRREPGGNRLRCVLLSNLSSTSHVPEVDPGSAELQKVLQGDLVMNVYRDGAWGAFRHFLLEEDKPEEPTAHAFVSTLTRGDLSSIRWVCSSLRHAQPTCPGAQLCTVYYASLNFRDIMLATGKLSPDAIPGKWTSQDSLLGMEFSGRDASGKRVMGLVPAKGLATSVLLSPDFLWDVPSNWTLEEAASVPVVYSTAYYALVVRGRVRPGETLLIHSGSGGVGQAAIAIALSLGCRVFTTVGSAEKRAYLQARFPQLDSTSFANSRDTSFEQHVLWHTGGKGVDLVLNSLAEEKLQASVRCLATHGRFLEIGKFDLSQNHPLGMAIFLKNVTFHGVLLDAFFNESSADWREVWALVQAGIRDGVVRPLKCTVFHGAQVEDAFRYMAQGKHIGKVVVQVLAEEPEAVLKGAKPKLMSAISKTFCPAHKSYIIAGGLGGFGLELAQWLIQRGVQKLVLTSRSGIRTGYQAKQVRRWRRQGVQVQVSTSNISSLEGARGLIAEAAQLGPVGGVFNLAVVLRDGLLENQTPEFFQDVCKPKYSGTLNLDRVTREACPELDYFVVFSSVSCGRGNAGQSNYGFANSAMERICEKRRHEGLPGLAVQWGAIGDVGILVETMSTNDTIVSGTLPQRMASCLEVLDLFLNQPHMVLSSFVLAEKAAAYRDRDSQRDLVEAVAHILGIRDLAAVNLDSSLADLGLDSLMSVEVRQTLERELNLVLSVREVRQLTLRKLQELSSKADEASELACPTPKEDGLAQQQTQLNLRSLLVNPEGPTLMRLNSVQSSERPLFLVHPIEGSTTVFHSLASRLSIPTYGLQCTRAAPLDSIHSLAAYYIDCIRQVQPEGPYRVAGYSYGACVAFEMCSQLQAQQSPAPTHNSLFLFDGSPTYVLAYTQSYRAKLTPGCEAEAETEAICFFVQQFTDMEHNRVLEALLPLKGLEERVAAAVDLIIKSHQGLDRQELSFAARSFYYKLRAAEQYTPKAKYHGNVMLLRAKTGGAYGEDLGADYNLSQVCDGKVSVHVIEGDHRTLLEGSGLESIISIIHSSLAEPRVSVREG

Fatty acid synthase [16] = biological target: T5, Fatty acid synthase; assay: FAS thioesterase domain inhibitors, dose response, biochemical, endpoint fluorescence intensity, uHTS hits (AID 624327); assay type: functional;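 further: fluorescence from hydrolysis of an O-methyl fluorescein acyl ester substrate by the enzyme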
Nonstructural protein 1 = Nonstructural protein 1 (Influenza A virus, UniProt Q194T2); assay type: functional, Influenza A virus (A/California/07/2009(H1N1))
Sequence of Nonstructural protein 1 (Q194T2 whole entry): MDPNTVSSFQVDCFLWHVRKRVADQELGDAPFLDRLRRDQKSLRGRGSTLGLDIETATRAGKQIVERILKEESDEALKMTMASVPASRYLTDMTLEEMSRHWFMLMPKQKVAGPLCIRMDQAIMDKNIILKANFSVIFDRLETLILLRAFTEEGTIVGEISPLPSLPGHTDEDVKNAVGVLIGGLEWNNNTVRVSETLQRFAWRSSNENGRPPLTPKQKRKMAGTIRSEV

[17] = Shn3 3'UTR reporter inhibitors, dose response, cell-based, Clone20 osteoblasts, firefly luciferase, cherry-picked (AID 624132); assay type: functional;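 further: firefly luciferase luminescence from reporter carrying the Shn3 3'UTR in osteoblasts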
[18] = control 3'UTR Renilla luciferase suppression, dose response, counter-screen for Shn3 inhibitor project, cell-based, Clone20-Shn3RL, cherry-picked (AID 624133); assay type: functional
[19] = system: Streptococcus sp. 'group A'; assay: growth inhibition of control SK(-) GAS strain, dose response, counter-screen for streptokinase expression inhibitor project, luminescence, kanamycin, BacTiterGlo, confirmation (AID 1900); assay type: functional, organism-based
Streptococcus = assay: Group A Streptococcus viability loss, dose response, counter-screen for streptokinase expression inhibitor project, luminescence, BacTiterGlo (AID 1915); assay type: functional, organism-based;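 further: potency for reduction of bacterial viability or growth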

Sequence of Glucose-6-phosphate 1-dehydrogenase (P11413 whole entry): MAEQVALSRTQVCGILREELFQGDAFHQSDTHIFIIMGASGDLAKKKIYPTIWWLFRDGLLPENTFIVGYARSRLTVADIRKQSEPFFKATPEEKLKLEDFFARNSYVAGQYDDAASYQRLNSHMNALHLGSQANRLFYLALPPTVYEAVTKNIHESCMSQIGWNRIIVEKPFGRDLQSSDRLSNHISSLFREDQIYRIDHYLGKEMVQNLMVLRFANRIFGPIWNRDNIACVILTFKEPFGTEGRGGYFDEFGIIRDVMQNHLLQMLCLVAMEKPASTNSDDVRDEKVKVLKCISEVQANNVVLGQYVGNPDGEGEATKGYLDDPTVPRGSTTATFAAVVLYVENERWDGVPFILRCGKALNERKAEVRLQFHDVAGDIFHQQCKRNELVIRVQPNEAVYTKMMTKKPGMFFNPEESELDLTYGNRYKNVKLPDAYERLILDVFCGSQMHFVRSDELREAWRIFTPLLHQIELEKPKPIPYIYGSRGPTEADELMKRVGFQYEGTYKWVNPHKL

## O=C(CNC(=O)c1cccs1)OCC(=O)c1ccc([N+](=O)[O-])cc1
[1]
  IC50: > 80 µM (inactive)

## CC(=O)c1cccc(NC(=S)NC(=O)c2ccc(Br)cc2)c1
[2]
  IC50: > 66 µM (inactive)
[3]
  IC50: > 66 µM (inactive)

## CC(=O)Nc1cc(C(=O)N2CCN(C)CC2)ccc1S(=O)(=O)c1ccc(C)cc1
[4]
  IC50: 0.796 µM (not active)

## CCOC(=O)CCNC(=O)Nc1ccc2nc(C)n(Cc3cccc(Cl)c3)c(=O)c2c1
[4]
  IC50: 6.83 µM (not active)

## COc1ccc(CNC(=O)c2ccc3c(c2)N(C)CCS3)cc1
[5]
  AC50: 15.4 µM (active)

## CCCCC1=CC2=CC(=O)C(C)(OC(=O)CC)C(=O)C2=CN1CCCCO (centres undefined)
[2]
  IC50: > 66 µM (inactive)
[3]
  IC50: > 66 µM (inactive)

## O=C1c2ccccc2C(=O)N1CCc1csc(-c2cccc(Cl)c2)n1
[4]
  IC50: 3.44 µM (not active)

## O=C(CSc1ncnc2sc3c(c12)CCCC3)N1CCC(c2noc3ccc(F)cc23)CC1
BJ [6]
  EC50: 30.7 µM (active)
[7]
  EC50: > 150 µM (not active)
BJ [8]
  EC50: > 150 µM (not active)
BJ [9]
  EC50: > 150 µM (not active)

## Cn1c(S)nnc1CNS(=O)(=O)c1ccc(Br)cc1
[5]
  AC50: 4.95 µM (active)

## O=C(O)Cc1ccc(NCc2ccccc2Cl)cc1
[5]
  AC50: 4.81 µM (active)

## Cc1nc(NC(=O)CCl)sc1C(=O)N(C)C
BJ [6]
  EC50: > 150 µM (not active)
[7]
  EC50: 28.3 µM (active)
BJ [8]
  EC50: > 150 µM (not active)
BJ [9]
  EC50: > 150 µM (not active)

## Cc1ccc(NC2CCCN(C(=O)c3ccnc(Cl)c3)C2)cc1C (centres undefined)
[5]
  AC50: 3.32 µM (active)

## CCOC(=O)N1CCC(NS(=O)(=O)c2cc3c(cc2Cl)NC(=O)CO3)CC1
[10]
  CC50: 33.4 µM (active)

## CC(NC(=O)c1ccc(N(C)C)cc1)C(c1cccs1)N1CCN(C)CC1 (centres undefined)
[5]
  AC50: 1.24 µM (active)

## COc1ccc(Cn2nc(-c3ccccc3)c(N3CCCCC3)cc2=O)cc1
[4]
  IC50: 10.6 µM (not active)

## COc1ccc(N/N=C(\C#N)C(=N)N2CCCCC2)cc1
[5]
  AC50: 0.077 µM (active)

## Fc1ccc(Sc2ccccc2CNC2=NCCN2)cc1
[11]
  EC50: > 260 µM (inactive)
[12]
  EC50: 1.49 µM (active)
[13]
  EC50: > 60 µM (not active)

## CCC(C(=O)NC1CCCC1)N(Cc1ccco1)C(=O)Cn1nnc(-c2ccc(C)cc2)n1 (centres undefined)
[4]
  IC50: 16.3 µM (not active)

## CC(C)(C)C(=O)Cn1ncc(Cl)c(Cl)c1=O
[14]
  AC50: 10.4 µM (active)

## COc1ccc(S(=O)(=O)Nc2nc3ccccc3nc2Nc2cccc(C(=O)O)c2)cc1
Genome polyprotein
  IC50: 34.5 µM (active)

## CCc1n[nH]c(C(=O)N2CCCC(Nc3ccc(C(C)C)cc3)C2)c1C (centres undefined)
[5]
  AC50: 3.61 µM (active)

## Cc1ccc([C@@H]2CC=C(C(=O)O)[C@H](c3ccc(Br)cc3)N2S(=O)(=O)c2ccccc2C)cc1
Genome polyprotein
  IC50: 34 µM (active)

## CC(NC(=O)COC(=O)c1cc([N+](=O)[O-])ccc1N1CCOCC1)c1ccc(F)cc1 (centres undefined)
Fatty acid synthase [15]
  IC50: 1.48 µM (active)
Fatty acid synthase [16]
  IC50: 1.95 µM (active)

## ON=CN=C(S)Nc1ncc(C(F)(F)F)cc1Cl
[2]
  IC50: > 66 µM (inactive)
[3]
  IC50: > 66 µM (inactive)

## CCCN1C(=O)/C(=C\C=C2/Sc3ccccc3N2CC)SC1=S
BJ [6]
  EC50: > 150 µM (not active)
[7]
  EC50: > 150 µM (not active)
BJ [8]
  EC50: > 150 µM (not active)
BJ [9]
  EC50: > 150 µM (inconclusive)

## O=C(O)c1ccccc1C(=O)c1ccc(N2CCOCC2)c([N+](=O)[O-])c1
BJ [6]
  EC50: > 150 µM (not active)
[7]
  EC50: > 150 µM (not active)
BJ [8]
  EC50: > 150 µM (not active)
BJ [9]
  EC50: > 150 µM (not active)

## COc1ccc(N2CCN(CCNC(=O)Nc3ccc([N+](=O)[O-])cc3OC)CC2)cc1
[5]
  AC50: 2.24 µM (active)
Nonstructural protein 1
  IC50: > 100 µM (active)

## CCOC(=O)c1sc(NC(=O)CCCn2nc([N+](=O)[O-])c(Cl)c2C)c(C(=O)OCC)c1C
[17]
  AC50: 6.34 µM (active)
[18]
  AC50: 15.4 µM (active)

## COCCN1CN(S(=O)(=O)c2ccccc2)c2nc3ccccc3nc21
[2]
  IC50: > 66 µM (inactive)
[3]
  IC50: 55.4 µM (inactive)

## Cc1oc2c(c1C(=O)Nc1cccc3ccccc13)CCCC2
[4]
  IC50: > 50 µM (not active)

## CCN1CCN(c2cc(C)c3cc(NC(S)=NCc4cccs4)ccc3n2)CC1
[4]
  IC50: 10 µM (not active)

## COc1ccc(Br)cc1/C=C/C(=O)NC(=S)Nc1ccc(Cl)c(C(=O)O)c1
Genome polyprotein
  IC50: 46.9 µM (active)
[19]
  EC50: 56.5 µM (active)
Streptococcus
  EC50: 5.98 µM (active)

## N#CCCN(C(=S)NC(=O)c1ccco1)c1ccccc1F
[2]
  IC50: > 66 µM (inactive)
[3]
  IC50: > 66 µM (inactive)

## S=C(NN=Cc1ccccn1)N(Cc1ccccn1)Cc1ccccn1
[1]
  IC50: > 80 µM (inactive)
Nonstructural protein 1
  IC50: 1.59 µM (active)

## O=C(COC(=O)CCc1ccccc1)Nc1cc([N+](=O)[O-])ccc1F
Fatty acid synthase [15]
  IC50: 6.27 µM (active)
Fatty acid synthase [16]
  IC50: 5.19 µM (active)

## CC(C)(C)OC(=O)NCCCCCNC(=O)c1[nH]cnc1C(=O)N[C@@H](CCCCNC(=O)OC(C)(C)C)C(=O)OC(C)(C)C
[4]
  IC50: 10.7 µM (not active)

## CC(C)(C)c1ccc(C(=O)N/C(=C\c2cccc([N+](=O)[O-])c2)C(=O)Nc2cccc(C(=O)O)c2)cc1
Fatty acid synthase [15]
  IC50: 1.48 µM (active)
Fatty acid synthase [16]
  IC50: 2.44 µM (active)

## CCCN(CCC)S(=O)(=O)c1ccc(NC(=O)COc2ccccc2)cc1
[4]
  IC50: 3.3 µM (not active)

## COCCn1c(C)cc(C(=O)COC(=O)c2ccc(-n3nc(C)cc3C)cc2)c1C
[11]
  EC50: > 260 µM (inactive)

## COc1ccc(N2CCN(C(=O)c3ccccc3N(C)S(=O)(=O)c3ccccc3)CC2)cc1
[5]
  AC50: 8.08 µM (active)

## COc1ccc(CC2C(=O)N(C)C(=O)N(C)C2=O)c(OC)c1
[2]
  IC50: > 66 µM (inactive)
[3]
  IC50: > 66 µM (inactive)
